Where two headings read alike, the source gives them in different places.
Legend:
[1] = evaluated by a test method based on OECD Test Guideline 406 in MSDS; cited from earlier work
female mice = assay: Skin sensitization test according to the LLNA (Local Lymph Node Assay), BrdU intake; format: in vivo; details: test substance 50.0 w/v % in acetone/olive oil 4/1, 25 μL/auricle once a day for three days; SI less than 3 = negative in skin sensitizing property
Procedure: Stimulus index (SI) was measured by a skin sensitization test according to the LLNA (Local Lymph Node Assay) as follows.
As a positive control, α-hexyl cinnamaldehyde (HCA, product of Wako Pure Chemical Industries, Ltd.) was used.
As a medium, a mixture liquid of acetone (product of Wako Pure Chemical Industries, Ltd.) and olive oil (product of Fudimi Pharmaceutical Co., Ltd.) in a volume ratio of 4/1 was used.
Before treated with the test materials, the positive control, or the medium control, female mice were acclimated for 8 days including 6-day quarantine. No abnormalities were found in all the mice (used animals) during the quarantine/acclimation period.
Based on the body weights measured 2 days before the initiation of sensitization, they were categorized into 2 groups (4 mice/group) by the body weight stratified random sampling method so that the body weight of each individual was within ±20% of the average body weight of all the individuals. Each of the used animals was 8 weeks old to 9 weeks old at the time of the initiation of sensitization. […]
About 24 hours after the administration of BrdU, the used animals were allowed to undergo euthanasia, and their auricular lymph nodes were sampled. […] Also, the average of the weights of the auricular lymph nodes and the standard error thereof were calculated for each group. […]

[2] = evaluated by Maximization test method according to the document; cited from earlier work
[3] = risk phrase code R43 or H317; cited from earlier work

Row | Molecule | skin sensitizing property [1] | skin sensitizing property [2] | further results
1 | O=C(c1ccccc1)C1(O)CCCCC1 [1-Hydroxy-cyclohexyl phenyl ketone] | None | – | –
2 | CCC(Cc1ccc(C)cc1)(C(=O)c1ccc(N2CCOCC2)cc1)N(C)C (stereo not drawn) [2-Dimethylamino-2-(4-methylbenzyl)-1-(4-morpholine-4-yl-phenyl)butane-1-one] | None | – | –
3 | C=C(C)C(=O)OCC(CO)OC(=O)C(=C)C (stereo not drawn) [Glycerol dimethacrylate] | – | – | SI measured by the LLNA test (stimulus index) (female mice): 1.2
4 | C=C(C)C(=O)OCCCCCC [n-Hexyl methacrylate] | – | Negative | –
5 | C=C(C)C(=O)OCCCCC [n-Pentyl methacrylate] | – | Negative | –
6 | C=CC(=O)OC(C)(C)C [t-Butyl acrylate] | – | – | skin sensitizing property [3]: Positive
7 | C=C(C)C(=O)OC(C)(C)C [t-Butyl methacrylate] | – | Negative | –
8 | Caprolactone-modified dipentaerythritol hexaacrylate | Negative | – | –
9 | Tricyclodecane dimethanol dimethacrylate | – | – | SI measured by the LLNA test (stimulus index) (female mice): 1.3
